Assay [1] has as its target T1, K-Ras G12V (Homo sapiens, UniProt P01116, G12V). Put plainly: SOS1 catalyzed nucleotide exchange assay (GDP form K-Ras), K-Ras G12V. The settings on record: read-out: K-Ras G12V GDP Biochemical Activity (IC50).
For assay [2], the target named is T2, K-Ras WT (Homo sapiens, UniProt P01116). As to the kind of experiment: SOS1 catalyzed nucleotide exchange assay (GDP form K-Ras), K-Ras WT. The settings on record: read-out: K-Ras WT GDP Biochemical Activity (IC50).
Assay [3] deals with p-ERK in AGS cells (K-Ras G12D). Put plainly: Phospho-ERK1/2(THR202/TYR204) HTRF assay, AGS. The format is cell-based. The settings on record: Homo sapiens, 2 h, 2 hours incubation. (Time-resolved FRET reads energy transfer from a long-lived donor to a nearby acceptor.)
Experimental: p-ERK (MAPK pathway) inhibition activity of each of compounds in a variety of K-Ras mutant and K-Ras WT cell lines indicated in Table 23 was evaluated.
Each of cells in culture medium was seeded in 96-well plates at density indicated in Table 23 and then put in a cell incubator to incubate overnight. The next day, the culture medium was removed and the compound diluted in assay medium was added in each well. […] 10 μL of cell lysates from the 96-well plates were transferred to a 384-well plate (Greiner) containing 2.5 μL/well HTRF® pre-mixed antibodies (Cisbio 64AERPEH). The plate was incubated 4 hours at 25° C. and then read HTRF signals on Tecan Spark multimode microplate reader. The data were analyzed using a 4-parameter logistic model to calculate IC50 values.
Assay [4] relates to p-ERK in SW620 cells (K-Ras G12V). Put plainly: Phospho-ERK1/2(THR202/TYR204) HTRF assay, SW620. Type of assay: cell-based. Particulars: Homo sapiens, SW-620, 2 h, 2 hours incubation.
A further assay relates to AGS cells (K-Ras G12D). Put plainly: 2D cell growth inhibition assay, AGS. Type of assay: cell-based. The settings on record: Homo sapiens, 144 h, 6 days, absolute IC50.
The subject of assay [5] is AsPC-1 cells (K-Ras G12D). As to the kind of experiment: 2D cell growth inhibition assay, AsPC-1. Type of assay: cell-based. Particulars: Homo sapiens, ASPC1, 144 h, AsPC-1, K-Ras G12D, 6 days, absolute IC50.
Another assay deals with SW620 cells (K-Ras G12V). As to the kind of experiment: 2D cell growth inhibition assay, SW620. The format is cell-based. Particulars: Homo sapiens, SW-620, 144 h, 6 days, absolute IC50.
The target in assay [6] is T1, K-Ras G12V. Put plainly: biochemical.
For assay [7], the target named is T2, K-Ras WT. As to the kind of experiment: biochemical.
Another assay has as its target K-Ras G12D (Homo sapiens, UniProt P01116, G12D). Put plainly: biochemical.

T2 sequence (P01116 1-169 isoform P01116-2): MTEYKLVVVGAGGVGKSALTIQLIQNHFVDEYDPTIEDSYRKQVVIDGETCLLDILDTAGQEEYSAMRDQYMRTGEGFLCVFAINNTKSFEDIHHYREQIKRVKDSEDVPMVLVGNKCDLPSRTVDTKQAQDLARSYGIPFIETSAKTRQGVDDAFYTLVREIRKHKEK
T1 sequence (P01116 1-169 isoform P01116-2 G12V): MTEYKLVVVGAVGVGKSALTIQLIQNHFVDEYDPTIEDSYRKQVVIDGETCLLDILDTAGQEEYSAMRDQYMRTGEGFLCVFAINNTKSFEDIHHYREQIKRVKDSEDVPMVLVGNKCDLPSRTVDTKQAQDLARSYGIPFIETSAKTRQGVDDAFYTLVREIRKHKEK
Sequence of K-Ras G12D (P01116 1-169 isoform P01116-2 G12D): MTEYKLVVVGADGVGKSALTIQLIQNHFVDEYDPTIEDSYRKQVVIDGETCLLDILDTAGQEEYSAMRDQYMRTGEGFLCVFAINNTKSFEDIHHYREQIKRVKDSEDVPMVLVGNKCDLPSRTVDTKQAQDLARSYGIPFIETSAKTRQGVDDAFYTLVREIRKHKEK

In the case of `C#Cc1c(F)ccc2cc(O)cc(-c3ncc4c(N5CCCO[C@@H](C)C5)nc(OC[C@@]56CCCN5C[C@H](F)C6)nc4c3F)c12` (single isomer, unassigned) [Compound 8A, trifluoroacetic acid], the half-maximal inhibitory concentration (IC50) on K-Ras G12V [1] came out at 2.49 nM; at K-Ras WT [2] it was 4.7 nM; in [3] it was 21.7 nM; in [4] it was 37.6 nM; in the assay on AGS cells (K-Ras G12D), 98.1 nM; in [5], 608 nM. Further, the IC50 in the assay with SW620 cells (K-Ras G12V) turned out to be 133 nM; against K-Ras G12V [6], 170 nM; on K-Ras WT [7], 255 nM.

On to `C#Cc1c(F)ccc2cc(O)cc(-c3ncc4c(N5CCCO[C@H](C)C5)nc(OC[C@@]56CCCN5C[C@H](F)C6)nc4c3F)c12` (single isomer, unassigned) [Compound 8B, trifluoroacetic acid], for which the IC50 at K-Ras G12V [1] turned out to be 1.53 nM; at K-Ras WT [2], 1.71 nM; in [3], 5.94 nM; in [4], 8.91 nM; in the assay with AGS cells (K-Ras G12D), 27.4 nM; in assay [5], 153 nM. In addition, the IC50 in the assay with SW620 cells (K-Ras G12V) worked out at 19.6 nM; against K-Ras G12V [6], 16.3 nM; against K-Ras WT [7] it was 36.4 nM.

Take `C#Cc1c(F)ccc2cc(O)cc(-c3ncc4c(N5CCOC[C@@H](F)C5)nc(OC[C@@]56CCCN5C[C@H](F)C6)nc4c3F)c12` (single isomer, unassigned) [Compound 12A]: the IC50 on K-Ras G12V [1] is 1.48 nM; on K-Ras WT [2], 2.26 nM; in assay [3] it was 13 nM; in assay [4] it was 14 nM; with AGS cells (K-Ras G12D), 24.2 nM; in assay [5], 301 nM. In addition, the IC50 is 25.2 nM with SW620 cells (K-Ras G12V), 184 nM against K-Ras G12V [6] and 105 nM at K-Ras WT [7].

In the case of `C#Cc1c(F)ccc2cc(O)cc(-c3ncc4c(N5CCOC[C@@H](C)C5)nc(OC[C@@]56CCCN5C[C@H](F)C6)nc4c3F)c12` (single isomer, unassigned) [Compound 13A], the IC50 at K-Ras G12V [1] was 4.08 nM; on K-Ras WT [2], 5.99 nM; in [3], 44.4 nM; in assay [4], 42.3 nM; in the assay with AGS cells (K-Ras G12D) it was 122 nM; in [5] it was 680 nM. The concentration for half-maximal inhibition (IC50) in the assay on SW620 cells (K-Ras G12V) amounted to 93.6 nM; on K-Ras G12V [6] it was 1210 nM; on K-Ras WT [7] it was 794 nM.

Take `C#Cc1c(F)ccc2cc(O)cc(-c3ncc4c(N5CCOC[C@H](C)C5)nc(OC[C@@]56CCCN5C[C@H](F)C6)nc4c3F)c12` (single isomer, unassigned) [Compound 13B]: the IC50 at K-Ras G12V [1] came to 0.658 nM; at K-Ras WT [2], 0.76 nM; in assay [3] it was 1.1 nM; in assay [4], 5.82 nM; in the assay with AGS cells (K-Ras G12D), 6.35 nM; in [5] it was 43 nM. The IC50 with SW620 cells (K-Ras G12V) came to 5.48 nM; on K-Ras G12V [6], 35.7 nM; against K-Ras WT [7] it was 14.2 nM.

Regarding `C#Cc1c(F)ccc2cc(O)cc(-c3ncc4c(N5CCCO[C@@H](CC#N)C5)nc(OC[C@@]56CCCN5C[C@H](F)C6)nc4c3F)c12` (single isomer, unassigned) [Compound 15B], the IC50 at K-Ras G12V [1] is 0.873 nM; at K-Ras WT [2], 1.4 nM; in [3] it was 13.9 nM; in [4], 30.1 nM; in the assay on AGS cells (K-Ras G12D), 30.4 nM; in [5], 465 nM. The 50% inhibitory concentration (IC50) with SW620 cells (K-Ras G12V) is 59.6 nM; on K-Ras G12V [6], 331 nM; on K-Ras WT [7], 173 nM.

`C#Cc1c(F)ccc2cc(O)cc(-c3ncc4c(N5CCCOCC5)nc(OCC56CCCN5C[C@@](C)(F)C6)nc4c3F)c12` (single isomer, unassigned) [Compound 32A]: the IC50 at K-Ras G12V [1] stood at 1.37 nM; at K-Ras WT [2], 2.66 nM; in assay [3] it was 10.4 nM; in assay [4], 30 nM; in the assay with AGS cells (K-Ras G12D) it was 20.6 nM; in [5] it was 150 nM. The IC50 in the assay with SW620 cells (K-Ras G12V) was found to be 28.6 nM; on K-Ras G12V [6], 62.6 nM; against K-Ras WT [7] it was 70.4 nM.

For `C#Cc1c(F)ccc2cc(O)cc(-c3ncc4c(N5CCCOCC5)nc(OCC56CCCN5C[C@](C)(F)C6)nc4c3F)c12` (single isomer, unassigned) [Compound 32B], the IC50 on K-Ras G12V [1] amounted to 1.97 nM; at K-Ras WT [2], 3.12 nM; in assay [3] it was 12.1 nM; in assay [4], 17.1 nM; in the assay on AGS cells (K-Ras G12D), 18.6 nM; in assay [5] it was 135 nM. In addition, the IC50 in the assay on SW620 cells (K-Ras G12V) was found to be 27.9 nM; against K-Ras G12V [6], 69.7 nM; against K-Ras WT [7], 77.4 nM.

As for `C#Cc1c(F)ccc2cc(O)cc(-c3ncc4c(N5CCOC[C@H](O)C5)nc(OC[C@@]56CCCN5C[C@H](F)C6)nc4c3F)c12` (single isomer, unassigned) [Compound 46A], the IC50 worked out at 3.12 nM at K-Ras G12V [1]; 7.95 nM at K-Ras WT [2]; 83.9 nM in assay [3]; 321 nM in assay [4]; 187 nM in the assay on AGS cells (K-Ras G12D); 2870 nM in assay [5]. In addition, the IC50 is 630 nM in the assay on SW620 cells (K-Ras G12V), 343 nM at K-Ras G12V [6] and 394 nM against K-Ras WT [7].

Regarding `C#Cc1c(F)ccc2cc(O)cc(-c3ncc4c(N5CCOC[C@@H](O)C5)nc(OC[C@@]56CCCN5C[C@H](F)C6)nc4c3F)c12` (single isomer, unassigned) [Compound 46B], the IC50 on K-Ras G12V [1] was found to be 1.26 nM; on K-Ras WT [2], 0.964 nM; in [3], 15 nM; in assay [4] it was 45.7 nM; in the assay with AGS cells (K-Ras G12D), 20.6 nM; in assay [5] it was 446 nM. Also, the IC50 is 50.1 nM in the assay with SW620 cells (K-Ras G12V), 50.9 nM on K-Ras G12V [6] and 31.7 nM against K-Ras WT [7].

For `C#Cc1c(F)ccc2cc(O)cc(-c3c(SC(F)(F)F)cc4c(N5CCCOCC5)nc(OC[C@@]56CCCN5C[C@H](F)C6)nc4c3F)c12` [Compound 41, 5-ethynyl-6-fluoro-4-(8-fluoro-2-(((2R,7aS)-2-fluorotetrahydro-1H-pyrrolizin-7a(5H)-yl)methoxy)-4-(1,4-oxazepan-4-yl)-6-((trifluoromethyl)thio)quinazolin-7-yl)naphthalen-2-ol trifluoroacetic acid], the IC50 on K-Ras G12V [1] stood at 6.88 nM; on K-Ras WT [2] it was 14.9 nM; in the assay on AGS cells (K-Ras G12D) it was 62.2 nM; in assay [5] it was 238 nM; with SW620 cells (K-Ras G12V), 88.8 nM; on K-Ras G12V [6] it was 32.4 nM. Further, the IC50 at K-Ras WT [7] was 82.4 nM.

Regarding `C#Cc1c(F)ccc2cc(OC(=O)C34CC5CC(CC(C5)C3)C4)cc(-c3ncc4c(N5CCCOCC5)nc(OC[C@@]56CCCN5C[C@H](F)C6)nc4c3F)c12` [Compound 74, 5-ethynyl-6-fluoro-4-(8-fluoro-2-(((2R,7aS)-2-fluorotetrahydro-1H-pyrrolizin-7a(5H)-yl)methoxy)-4-(1,4-oxazepan-4-yl)pyrido[4,3-d]pyrimidin-7-yl)naphthalen-2-yl adamantane-1-carboxylate trifluoroacetic acid], the IC50 is 69.1 nM on K-Ras G12V [1], 119 nM at K-Ras WT [2] and 136 nM against K-Ras G12D.

For `C#Cc1c(F)ccc2cc(B(O)O)cc(-c3ncc4c(N5CCCOCC5)nc(OC[C@@]56CCCN5C[C@H](F)C6)nc4c3F)c12` [Compound 90], the IC50 at K-Ras G12V [1] is 26.5 nM; on K-Ras WT [2], 19.8 nM; on K-Ras G12D, 27.2 nM.

By IC50 is commonly meant the midpoint of a concentration-inhibition curve.

Source of the values: patent publication US20250019377A1 (JACOBIO PHARMACEUTICALS CO., LTD, priority 2021, published 2025).
